In ChEMBL document CHEMBL1154314, “Synthesis and antitumor activities of 3-modified 2-methoxyestradiol analogs” (Bioorg Med Chem Lett, 2009):

Experiments:
MDA-MB-231 = assay: Antiproliferative activity against human MDA-MB-231 cells; assay type: functional, cell-based
HUVEC = assay: Antiangiogenic activity in HUVEC assessed as inhibition of cell proliferation; assay type: functional, cell-based; conditions: Homo sapiens

IC50 (MDA-MB-231) | Structure (SMILES) | IC50 (HUVEC)
55.6 µM | COc1cc2c(cc1CO)CC[C@@H]1[C@@H]2CC[C@]2(C)[C@@H](O)CC[C@@H]12 | 28.2 µM
26.9 µM | COc1cc2c(cc1Cl)CC[C@@H]1[C@@H]2CC[C@]2(C)[C@@H](O)CC[C@@H]12 | 7.45 µM
2.48 µM | COc1cc2c(cc1N)CC[C@@H]1[C@@H]2CC[C@]2(C)[C@@H](O)CC[C@@H]12 | 2.32 µM
> 100 µM | COc1cc2c(cc1NS(=O)(=O)C(F)(F)F)CC[C@@H]1[C@@H]2CC[C@]2(C)[C@@H](O)CC[C@@H]12 | 46.2 µM
0.62 µM | COc1cc2c(cc1NC#N)CC[C@@H]1[C@@H]2CC[C@]2(C)[C@@H](O)CC[C@@H]12 | 0.47 µM
8.98 µM | COc1cc2c(cc1C#N)CC[C@@H]1[C@@H]2CC[C@]2(C)[C@@H](O)CC[C@@H]12 | 2.65 µM
62 µM | COc1ccc2c(c1)[C@H]1CC[C@]3(C)[C@@H](O)CC[C@H]3[C@@H]1CC2 | 22.1 µM
0.78 µM | COc1cc2c(cc1NC=O)CC[C@@H]1[C@@H]2CC[C@]2(C)[C@@H](O)CC[C@@H]12 | 0.07 µM
0.65 µM | COc1cc2c(cc1NC(N)=O)CC[C@@H]1[C@@H]2CC[C@]2(C)[C@@H](O)CC[C@@H]12 | 0.59 µM
> 100 µM | COC(=O)c1cc2c(cc1OC)[C@H]1CC[C@]3(C)[C@@H](O)CC[C@H]3[C@@H]1CC2 | > 100 µM
2.94 µM | COc1cc2c(cc1F)CC[C@@H]1[C@@H]2CC[C@]2(C)[C@@H](O)CC[C@@H]12 | 2.1 µM
103 µM | COc1cc2c(cc1N(C)C)CC[C@@H]1[C@@H]2CC[C@]2(C)[C@@H](O)CC[C@@H]12 | 2.82 µM
3.95 µM | COc1cc2c(cc1NC(C)=O)CC[C@@H]1[C@@H]2CC[C@]2(C)[C@@H](O)CC[C@@H]12 | 1.65 µM
2.36 µM | COc1cc2c(cc1C(N)=O)CC[C@@H]1[C@@H]2CC[C@]2(C)[C@@H](O)CC[C@@H]12 | 2.59 µM
46.9 µM | CCc1cc2c(cc1OC)[C@H]1CC[C@]3(C)[C@@H](O)CC[C@H]3[C@@H]1CC2 | 5.44 µM
> 100 µM | CNC(=O)c1cc2c(cc1OC)[C@H]1CC[C@]3(C)[C@@H](O)CC[C@H]3[C@@H]1CC2 | > 100 µM
27.5 µM | COc1cc2c(cc1Br)CC[C@@H]1[C@@H]2CC[C@]2(C)[C@@H](O)CC[C@@H]12 | 9.13 µM
17.6 µM | COC(=O)Nc1cc2c(cc1OC)[C@H]1CC[C@]3(C)[C@@H](O)CC[C@H]3[C@@H]1CC2 | 5.92 µM
21.4 µM | COc1cc2c(cc1OS(=O)(=O)C(F)(F)F)CC[C@@H]1[C@@H]2CC[C@]2(C)[C@@H](O)CC[C@@H]12 | 3.27 µM
9.47 µM | COc1cc2c(cc1NS(N)(=O)=O)CC[C@@H]1[C@@H]2CC[C@]2(C)[C@@H](O)CC[C@@H]12 | 3.88 µM
> 100 µM | COc1cc2c(cc1C(=O)O)CC[C@@H]1[C@@H]2CC[C@]2(C)[C@@H](O)CC[C@@H]12 | > 100 µM
56.2 µM | COc1cc2c(cc1S)CC[C@@H]1[C@@H]2CC[C@]2(C)[C@@H](O)CC[C@@H]12 | 12.9 µM
> 10 µM | COc1cc2c(cc1C(=O)N(C)C)CC[C@@H]1[C@@H]2CC[C@]2(C)[C@@H](O)CC[C@@H]12 | > 10 µM

Structure (SMILES) | IC50 (MDA-MB-231) | IC50 (HUVEC)
COc1cc2c(cc1OC)[C@H]1CC[C@]3(C)[C@@H](O)CC[C@H]3[C@@H]1CC2 | 43.7 µM | 31.5 µM
C=Cc1cc2c(cc1OC)[C@H]1CC[C@]3(C)[C@@H](O)CC[C@H]3[C@@H]1CC2 | 8.93 µM | 1.96 µM
